Source: ChEMBL document CHEMBL1828590 (J Med Chem, 2011)

Key:
HCT-116 [1] = assay: Antitumor activity against human HCT116 cells xenografted in nude BALB/c mouse assessed as tumor growth inhibition at 200 mg/kg, po qd for 21 days measured on day 15; type: functional; conditions: read-out: TGI
COLO 205 = assay: Antiproliferative activity against human COLO205 cells after 96 hrs by celltiter 96 assay; type: functional, cell-based; conditions: COLO 205, 96 h
A2780 = assay: Antiproliferative activity against human A2780 cells after 96 hrs by celltiter 96 assay; type: functional, cell-based; conditions: A2780, 96 h
HCT-116 [2] = assay: Antiproliferative activity against human HCT116 cells after 96 hrs by celltiter 96 assay; type: functional, cell-based; conditions: HCT-116, 96 h
PC-3 = assay: Antiproliferative activity against human PC3 cells after 96 hrs by celltiter 96 assay; type: functional, cell-based; conditions: PC-3, 96 h
Histone deacetylase 4 = Histone deacetylase 4 (Homo sapiens, UniProt P56524)
Description: Competitive inhibition of HDAC4 using KI-104 as substrate by fluorescence assay

[3] = target: T1, Protein deacetylase HDAC6 (Homo sapiens, UniProt Q9UBN7)
T1 sequence (Q9UBN7 whole entry): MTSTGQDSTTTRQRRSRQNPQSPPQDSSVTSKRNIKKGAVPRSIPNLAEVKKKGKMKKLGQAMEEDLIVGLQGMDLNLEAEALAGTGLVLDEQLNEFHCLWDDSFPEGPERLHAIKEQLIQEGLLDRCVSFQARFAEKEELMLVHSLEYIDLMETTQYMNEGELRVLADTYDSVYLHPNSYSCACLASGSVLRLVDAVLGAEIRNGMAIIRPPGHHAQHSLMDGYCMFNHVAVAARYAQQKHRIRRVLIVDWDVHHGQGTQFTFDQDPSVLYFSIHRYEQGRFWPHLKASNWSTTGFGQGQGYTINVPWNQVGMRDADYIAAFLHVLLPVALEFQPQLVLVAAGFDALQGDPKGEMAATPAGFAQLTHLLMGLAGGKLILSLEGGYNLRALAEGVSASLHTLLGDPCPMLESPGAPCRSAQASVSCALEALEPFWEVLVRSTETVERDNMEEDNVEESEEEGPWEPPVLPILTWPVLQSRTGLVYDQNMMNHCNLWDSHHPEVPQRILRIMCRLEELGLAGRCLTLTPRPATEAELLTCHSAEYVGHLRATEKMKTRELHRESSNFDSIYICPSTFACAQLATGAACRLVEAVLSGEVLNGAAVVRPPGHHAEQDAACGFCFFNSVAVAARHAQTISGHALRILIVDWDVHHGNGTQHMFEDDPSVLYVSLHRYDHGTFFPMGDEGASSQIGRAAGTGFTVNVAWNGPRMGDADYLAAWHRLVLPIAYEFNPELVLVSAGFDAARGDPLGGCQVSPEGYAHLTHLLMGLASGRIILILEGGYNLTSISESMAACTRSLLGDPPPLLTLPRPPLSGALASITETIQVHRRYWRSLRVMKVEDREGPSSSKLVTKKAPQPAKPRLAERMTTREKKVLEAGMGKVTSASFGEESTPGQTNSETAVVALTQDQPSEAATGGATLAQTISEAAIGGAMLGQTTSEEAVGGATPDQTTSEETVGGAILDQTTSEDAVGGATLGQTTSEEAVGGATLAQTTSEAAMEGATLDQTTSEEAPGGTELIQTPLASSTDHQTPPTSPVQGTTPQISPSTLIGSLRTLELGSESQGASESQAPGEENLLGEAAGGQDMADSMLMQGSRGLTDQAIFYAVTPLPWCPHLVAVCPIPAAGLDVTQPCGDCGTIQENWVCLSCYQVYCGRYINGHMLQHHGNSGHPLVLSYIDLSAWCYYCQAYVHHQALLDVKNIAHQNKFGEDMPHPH
Description: Competitive inhibition of HDAC6 using KI-104 as substrate by fluorescence assay

[4] = target: T2, Polyamine deacetylase HDAC10 (Homo sapiens, UniProt Q969S8)
T2 sequence (Q969S8 whole entry): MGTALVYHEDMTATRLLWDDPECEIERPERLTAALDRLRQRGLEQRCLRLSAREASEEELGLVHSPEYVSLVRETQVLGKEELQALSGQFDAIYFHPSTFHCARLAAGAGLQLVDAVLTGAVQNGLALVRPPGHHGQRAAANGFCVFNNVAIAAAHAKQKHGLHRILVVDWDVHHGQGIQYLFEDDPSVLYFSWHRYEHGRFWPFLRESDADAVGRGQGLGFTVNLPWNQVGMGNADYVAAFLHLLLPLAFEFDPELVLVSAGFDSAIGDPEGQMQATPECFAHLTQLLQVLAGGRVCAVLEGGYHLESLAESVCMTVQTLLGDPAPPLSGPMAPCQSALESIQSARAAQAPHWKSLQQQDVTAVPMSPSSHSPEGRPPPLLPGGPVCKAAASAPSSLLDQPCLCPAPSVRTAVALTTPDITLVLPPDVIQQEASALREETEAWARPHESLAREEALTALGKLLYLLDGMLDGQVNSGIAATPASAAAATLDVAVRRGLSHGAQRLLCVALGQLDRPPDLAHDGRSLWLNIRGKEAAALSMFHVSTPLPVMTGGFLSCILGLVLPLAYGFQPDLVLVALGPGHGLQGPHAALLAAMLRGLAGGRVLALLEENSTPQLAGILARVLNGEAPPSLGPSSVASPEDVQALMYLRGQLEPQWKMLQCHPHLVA
Description: Competitive inhibition of HDAC10 using KI-104 as substrate by fluorescence assay

[5] = Oral bioavailability in nude BALB/c mouse at 50 mg/kg; type: ADME, organism-based; conditions: in vivo
Mus musculus [6] = assay: Toxicity in athymic nu/nu Harlan mouse xenografted with human HCT116 cells assessed as body weight loss at 200 mg/kg, po QD for 7 days measured on day 5; type: organism-based, HCT-116; design: dose 200 mg/kg, route oral; conditions: in vivo, 168 h
Mus musculus [7] = assay: Toxicity in athymic nu/nu Harlan mouse xenografted with human HCT116 cells assessed as mouse survival at 50 mg/kg, po QD for 21 days measured on day 22; type: organism-based, HCT-116; design: dose 50 mg/kg, route oral; conditions: in vivo, 504 h
Mus musculus [8] = assay: Toxicity in athymic nu/nu Harlan mouse xenografted with human HCT116 cells assessed as mouse survival at 100 mg/kg, po QD for 21 days measured on day 22; type: organism-based, HCT-116; design: dose 100 mg/kg, route oral; conditions: in vivo, 504 h
Mus musculus [9] = assay: Toxicity in athymic nu/nu Harlan mouse xenografted with human HCT116 cells assessed as mouse survival at 200 mg/kg, po QD for 21 days measured on day 22; type: organism-based, HCT-116; design: dose 200 mg/kg, route oral; conditions: in vivo, 504 h
HCT-116 [10] = assay: Antitumor activity against human HCT116 cells xenografted in athymic nu/nu Harlan mouse assessed as tumor growth inhibition at 50 mg/kg, po qd for 21 days measured on day 22; type: functional; conditions: read-out: TGI
HCT-116 [11] = assay: Antitumor activity against human HCT116 cells xenografted in athymic nu/nu Harlan mouse assessed as tumor growth inhibition at 100 mg/kg, po qd for 21 days measured on day 22; type: functional; conditions: read-out: TGI
HCT-116 [12] = assay: Antitumor activity against human HCT116 cells xenografted in athymic nu/nu Harlan mouse assessed as tumor growth inhibition at 200 mg/kg, po qd for 21 days measured on day 22; type: functional; conditions: read-out: TGI
HCT-116 [13] = assay: Antitumor activity against human HCT116 cells xenografted in athymic nude nu/nu CD1 mouse assessed as tumor growth inhibition at 40 mg/kg, ip qd for 7 days measured on day 10; type: functional; conditions: HCT-116, ip, route intraperitoneal, read-out: TGI
HCT-116 [14] = assay: Antitumor activity against human HCT116 cells xenografted in nude BALB/c mouse assessed as tumor growth inhibition at 50 mg/kg, po qd for 21 days measured on day 18; type: functional; conditions: read-out: TGI
HCT-116 [15] = assay: Antitumor activity against human HCT116 cells xenografted in nude BALB/c mouse assessed as tumor growth inhibition at 50 mg/kg, po qd for 21 days measured on day 15; type: functional; conditions: read-out: TGI
Mus musculus [16] = assay: Toxicity in nude BALB/c mouse xenografted with human HCT116 cells assessed as body weight loss at 50 mg/kg, po QD for 21 days measured on day 12; type: organism-based, HCT-116; design: dose 50 mg/kg, route oral; conditions: in vivo, 504 h
Mus musculus [17] = assay: Toxicity in nude BALB/c mouse xenografted with human HCT116 cells assessed as mouse survival at 50 mg/kg, po QD for 21 days measured on day 22; type: organism-based, HCT-116; design: dose 50 mg/kg, route oral; conditions: in vivo, 504 h

Chain of Histone deacetylase 4 (P56524 whole entry): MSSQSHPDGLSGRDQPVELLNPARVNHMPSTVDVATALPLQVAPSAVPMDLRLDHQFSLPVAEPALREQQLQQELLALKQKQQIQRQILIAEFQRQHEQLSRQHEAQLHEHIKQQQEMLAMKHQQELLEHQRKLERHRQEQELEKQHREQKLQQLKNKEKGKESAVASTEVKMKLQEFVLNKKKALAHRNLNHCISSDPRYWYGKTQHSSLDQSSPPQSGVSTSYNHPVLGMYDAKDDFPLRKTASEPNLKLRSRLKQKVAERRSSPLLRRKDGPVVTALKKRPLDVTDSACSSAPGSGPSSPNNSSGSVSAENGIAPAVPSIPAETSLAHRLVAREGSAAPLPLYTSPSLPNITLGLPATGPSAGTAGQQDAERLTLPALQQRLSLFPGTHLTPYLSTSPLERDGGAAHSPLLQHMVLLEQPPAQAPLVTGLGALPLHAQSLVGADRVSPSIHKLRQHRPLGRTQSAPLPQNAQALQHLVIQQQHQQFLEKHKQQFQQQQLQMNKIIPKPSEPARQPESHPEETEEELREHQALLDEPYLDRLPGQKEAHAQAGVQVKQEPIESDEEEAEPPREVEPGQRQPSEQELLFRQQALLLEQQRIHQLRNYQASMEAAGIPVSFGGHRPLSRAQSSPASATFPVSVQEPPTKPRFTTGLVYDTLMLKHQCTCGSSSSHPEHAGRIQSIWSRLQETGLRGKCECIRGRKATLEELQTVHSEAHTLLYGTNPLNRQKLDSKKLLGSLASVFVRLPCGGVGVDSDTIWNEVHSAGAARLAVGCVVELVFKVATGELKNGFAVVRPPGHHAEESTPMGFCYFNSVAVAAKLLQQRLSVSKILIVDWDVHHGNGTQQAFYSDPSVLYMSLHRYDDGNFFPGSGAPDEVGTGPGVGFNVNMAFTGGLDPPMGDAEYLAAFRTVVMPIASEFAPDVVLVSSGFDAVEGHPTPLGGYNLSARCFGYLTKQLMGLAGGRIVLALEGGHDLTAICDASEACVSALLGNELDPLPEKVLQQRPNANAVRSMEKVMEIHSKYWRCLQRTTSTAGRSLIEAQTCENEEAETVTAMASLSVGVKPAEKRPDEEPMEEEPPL

O=C(/C=C/c1cccc(S(=O)(=O)Nc2ccccc2)c1)NO [BELINOSTAT]
inhibition in vivo at 200 mg/kg (HCT-116 [1]): 42%
IC50 (COLO 205): 700 nM
IC50 (A2780): 670 nM
IC50 (HCT-116 [2]): 600 nM
IC50 (PC-3): 450 nM
Ki (Histone deacetylase 4): 15 nM
Ki [3]: 10 nM
Ki [4]: 59 nM
bioavailability [5]: 6.7%
Activity (Mus musculus [6]): 3.9%
Activity (Mus musculus [7]): Non-toxic
Activity (Mus musculus [8]): Non-toxic
Activity (Mus musculus [9]): Non-toxic
inhibition in vivo at 50 mg/kg (HCT-116 [10]): 6%
inhibition in vivo at 100 mg/kg (HCT-116 [11]): 26%
inhibition in vivo at 200 mg/kg (HCT-116 [12]): 29%
inhibition in vivo at 40 mg/kg (HCT-116 [13]): 50%

Cc1[nH]c2ccccc2c1CCNCc1ccc(/C=C/C(=O)NO)cc1 [PANOBINOSTAT]
inhibition in vivo at 50 mg/kg (HCT-116 [14]): 61%
inhibition in vivo at 50 mg/kg (HCT-116 [15]): 41%
IC50 (COLO 205): 18 nM
IC50 (A2780): 35 nM
IC50 (HCT-116 [2]): 48 nM
IC50 (PC-3): 24 nM
bioavailability [5]: 4.6%
Activity (Mus musculus [16]): 17.3%
Activity (Mus musculus [17]): Non-toxic
